Measured values reported in patent publication US11224591B2 (Cipla Limited, priority 2016, dated 2022).

How the values were obtained:
[1] = Caco-2 bidirectional assay (A-B and B-A) to study the effect of piperine (P-gp inhibitor) on the permeability; format: in vitro ADME; conditions: human
Protocol: (§1) Caco-2 cells were cultured in MEM media with 10% serum and seeded at a density of 75000 cells per mL and cultured for 21 days in a 24-well trans-well plate at 37° C., 5% CO2. The monolayer integrity was checked intermittently (Day 0-21) using Trans Epithelial Electric Resistance (TEER). Cells were treated with drugs as follows:
(§2) 2) Bidirectional Assay (A-B and B-A) to Study the Effect of Piperine (P-Gp Inhibitor) on the Permeability
(§3) For A-B, 400 μL samples were added to the wells as per the plate setup to the apical side in duplicates with 800 μL HBSS pH 7.4 in the basal wells. Samples were collected at 60, 90 and 120 minutes from the basal side. Mass balance samples at 0 and 120 minutes were collected from the apical side.
(§4) For B-A, 800 μL of the respective dilutions were added to the basal side in duplicates with 400 μL HBSS pH 7.4 in the apical wells. Samples were collected at 60, 90 and 120 minutes from the apical side. Mass balance samples at 0 and 120 minutes were collected from the basal side. The sample were analyzed on LCMS-MS.
(§5) At the end of the experiment the monolayer integrity was checked using and Lucifer yellow, calculating the % rejection of Lucifer yellow by incubating cells with 100 μg/mL Lucifer.
(§6) The apparent permeability (Papp) in units per second can be calculated by using the following equation,
(§7) For Lucifer yellow, % Lucifer Yellow Passage=[RFU(test)−RFU(blank)/RFU(equilibrium)−RFU(blank)]*100

[2] = tested on: Caco-2 cells; assay: as above; format: in vitro ADME; conditions: across the caco-2 monolayer; conclusion in words
Protocol: as §1, §2, §3, §4, §5, §6, §7

[3] = Digoxin 10 μM, Caco-2 monolayer, HBSS pH 7.4

Structure (SMILES): C[C@H]1O[C@@H](O[C@H]2[C@@H](O)C[C@H](O[C@H]3[C@@H](O)C[C@H](O[C@H]4CC[C@@]5(C)[C@H](CC[C@@H]6[C@@H]5C[C@@H](O)[C@]5(C)[C@@H](C7=CC(=O)OC7)CC[C@]65O)C4)O[C@@H]3C)O[C@@H]2C)C[C@H](O)[C@@H]1O [Digoxin]
- efflux ratio at 120 min, 10 μM ([1]; Caco-2, pH 7.4, Digoxin 10 μM, Papp B-A/Papp A-B): 12
- Papp A→B at 120 min, 10 μM [1, 3]: 0.829 ×10⁻⁶ cm/s
- Papp B→A at 120 min, 10 μM [1, 3]: 9.97 ×10⁻⁶ cm/s

Structure (SMILES): CO[C@H]1/C=C/O[C@@]2(C)Oc3c(C)c(O)c4c(O)c(c5c(nc6cc(C)ccn65)c4c3C2=O)NC(=O)/C(C)=C\C=C\[C@H](C)[C@H](O)[C@@H](C)[C@@H](O)[C@@H](C)[C@H](OC(C)=O)[C@@H]1C [Rifaximin, [(2S,16Z,18E,20S,21S,22R,23R,24R,25S,26S,27S,28E)-5,6,21,23,25-pentahydroxy-27-methoxy-2,4,11,16,20,22,24,26-octamethyl-2,7 (epoxypentadeca-[1,11,13]trienimino)benzofuro[4,5-e]pyrido[1,2-a]-benzimidazole 1,15(2H)-dione,25-acetate]]
- Papp A→B at 120 min, 30 μM ([1]; Caco-2, pH 7.4): 1.08 ×10⁻⁶ cm/s
- Papp B→A at 120 min, 30 μM ([1]; Caco-2, pH 7.4): 6.17 ×10⁻⁶ cm/s
- Permeability classification [2]: high
